In patent publication US20040121965A1, “Method of treating resistant tumors” (Wyeth Holdings Corporation, priority 2002, published 2004):
Where two headings read alike, the source gives them in different places.

How the values were obtained:
[1] = system: KB-3-1; assay: Cell survival assay (SRB), KB-3-1; type: cell-based, human; details: Homo sapiens
Summary of the method: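 SRB protein stain as survival read-out; IC50 = conc. giving 50% growth inhibition. Compound serially diluted, duplicate wells, 3 d exposure; TCA fixation (10% final, 1 h, 4 °C), 0.04% SRB/1% acetic acid 10 min, solubilised in 10 mM Trizma Base, A read.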

[2] = system: KB-8-5 (MDR1+); assay: Cell survival assay (SRB), KB-8-5 (MDR1+); details: for IC50: Homo sapiens
[3] = system: KB-V1 (MDR1++); assay: Cell survival assay (SRB), KB-V1 (MDR1++); details: for IC50: Homo sapiens
[4] = KB 3-1, KB-3-1 cells (paclitaxel-sensitive parent), read-out: In vitro IC50 (nM) KB-3-1
[5] = MDR1, read-out: In vitro IC50 (nM) KB85
[6] = read-out: In vitro IC50 (nM) KBV1

Structure (SMILES) | IC50 [1, 4] [nM] | Ratio KB85/KB [2] | IC50 [2, 5] [nM] | Ratio KBV1/KB [3] | IC50 [3, 6] [nM] | IC50 ([1]; KB 3-1, KB-3-1 parental, Table 3, read-out: KB-3-1 IC50, nM (N)) [nM] | RR, relative resistance [2] | IC50 ([2]; MDR1, read-out: KB-8-5 (MDR1+) IC50, nM (N)) [nM] | RR, relative resistance [3] | IC50 ([3]; read-out: KB-V1 (MDR1++) IC50, nM (N)) [nM] | IC50 ([3]; read-out: In vitro IC50 KBV1) [nM]
CN[C@H](C(=O)N[C@H](C(=O)N[C@H](/C=C(\C)C(=O)O)C(C)C)C(C)(C)C)C(C)(C)c1ccccc1.O=C(O)C(F)(F)F [Example 101, N,β,β-trimethyl-L-phenylalanyl-N^1-[(1S,2E)-3-carboxy-1-isopropylbut-2-enyl]-3-methyl-L-valinamide Trifluoroacetic Acid] | 43.1 | 3.2 | 139 | 69.6 | ≥ 3000 | – | – | – | – | – | –
CN[C@H](C(=O)N[C@H](C(=O)N(C)[C@H](/C=C(\C)C(=O)NCCc1ccccc1)C(C)C)C(C)(C)C)C(C)(C)c1ccccc1 [Example 112, N,β,β-trimethyl-L-phenylalanyl-N^1-{(1S,2E)-1-isopropyl-3-methyl4-oxo4-[(2-phenylethyl)amino]but-2-enyl}-N^1,3-dimethyl-L-valinamide] | 163 | 1.4 | 226 | 10.8 | 1770 | – | – | – | – | – | –
CN[C@H](C(=O)N[C@H](C(=O)N(C)[C@H](/C=C(\C)C(=O)O)C(C)C)C(C)(C)C)C(C)(C)c1ccc(C)cc1 [Example 11, N,β,β,4-Tetramethyl-L-phenylalanyl-N^1-[(1S,2E)-3-carboxy-1-isopropyl-2-butenyl]-N^1,3-dimethyl-L-valinamide] | 1.5 | 1.7 | 2.6 | 36.7 | 55 | – | – | – | – | – | –
CN[C@H](C(=O)N[C@H](C(=O)N(C)[C@H](/C=C(\C)C(=O)O)C(C)C)C(C)(C)c1ccc(OC)cc1)C(C)(C)c1ccccc1 [Example 87, N,β,β-trimethyl-L-phenylalanyl-N-[(1S,2E)-3-carboxy-1-isopropyl-2-butenyl]-N,O,β,β-tetramethyl-L-tyrosinamide] | 27.2 | 2.1 | 56.3 | 72.4 | 1970 | – | – | – | – | – | –
CN[C@H](C(=O)N[C@H](C(=O)N(C)[C@H](/C=C(\C)C(=O)O)C(C)C)C(C)(C)C)C(C)(C)SCc1ccc(OC)cc1 [Example 150, 3-[(4-methoxybenzyl)thio]-N-methyl-L-valyl-N^1-[(1S,2E)-3-carboxy-1-isopropylbut-2-enyl]-N^1,3-dimethyl-L-valinamide] | 5.2 | 2.1 | 11.3 | 36.5 | 190 | – | – | – | – | – | –
CN[C@H](C(=O)N[C@H](C(=O)N(C)[C@H](/C=C(\C)C(=O)O)C(C)C)C(C)(C)C)C(C)(C)c1cn(C)c2ccccc12 [Hemiasterlin, hemiasterlin, reference compound] | – | – | – | – | – | 0.319 ± 0.095 | 3.2 | 1 | 239 | 76.1 | –
CNC(C(=O)N[C@H](C(=O)N(C)[C@H](/C=C(\C)C(=O)O)C(C)C)C(C)(C)C)C1(c2ccccc2)CC1 (stereo in doubt) [Example 142, (2E,4S)-2,5-dimethyl-4-(methyl{3-methyl-N-[(2S)-2-(methylamino)-2-(1-phenylcyclopropyl)acetyl]-L-valyl}amino)hex-2-enoic Acid] | 227 | 2.2 | 513 | 13.2 | > 3000 | – | – | – | – | – | –
CC/C(=C\[C@H](CC(C)C)N(C)C(=O)[C@@H](NC(=O)[C@@H](NC)C(C)(C)c1ccccc1)C(C)(C)C)C(=O)O [Example 76, N,β,β-Trimethyl-L-phenylalanyl-N^1-[(1S,2E)-3-carboxy-1-isobutyl-2-pentenyl]-N^1,3-dimethyl-L-valinamide] | 70.8 | 2.4 | 169 | 42.4 | ≥ 3000 | – | – | – | – | – | –
CN[C@@H](C(=O)N[C@H](C(=O)N(C)[C@H](/C=C(\C)C(=O)O)C(C)C)C(C)(C)C)C(C)(C)c1ccsc1 [Example 24, N-Methyl-3-thien-3-yl-D-valyl-N^1-[(1S,2E)-3-carboxy-1-isopropylbut-2-enyl]-N^1,3-dimethyl-L-valinamide] | 9.5 | 2.4 | 22.4 | 182.9 | 1740 | – | – | – | – | – | –
CN[C@H](C(=O)N[C@H](C(=O)N(C)[C@H](/C=C(\C)C(=O)O)C(C)C)C(C)(C)C)C(C)(C)c1cccc(-c2ccccc2)c1 [Example 39, 3-phenyl-N,β,β-trimethyl-L-phenylalanyl-N^1-[(1S,2E)-3-carboxy-1-isopropylbut-2-enyl]-N^1,3-dimethyl-L-valinamide] | 1.9 | 2.8 | 5.4 | 78.4 | 149 | – | – | – | – | – | –
C=CC[C@@H](/C=C(\C)C(=O)O)N(C)C(=O)[C@@H](NC(=O)[C@@H](NC)C(C)(C)c1ccccc1)C(C)(C)C [Example 119, N,β,β-trimethyl-L-phenylalanyl-N^1-[(1S,2E)-1-allyl-3-carboxybut-2-enyl]-N^1,3-dimethyl-L-valinamide] | 55 | 3.0 | 164 | – | – | – | – | – | – | – | > 3000
CCOC(=O)/C(C)=C/C(C(C)C)N(C)C(=O)[C@@H](NC(=O)[C@@H](NC)C(C)(C)c1ccccc1)[C@H](C)O (stereo in doubt) [Example 85, N,β,β-trimethyl-L-phenylalanyl-N^1-[(1R,2E)-4-ethoxy-1-isopropyl-3-methyl-4-oxo-2-butenyl]-N^1-methyl-L-allothreoninamide] | 115 | 11.5 | 1330 | 26.0 | ≥ 3000 | – | – | – | – | – | –
CCOC(=O)/C(C)=C/[C@H](C(C)C)N(C)C(=O)[C@@H](NC(=O)[C@@H](NC)C(C)(C)c1ccc(C)cc1)C(C)(C)C [Example 10a, N,β,β,4-Tetramethyl-L-phenylalanyl-N^1-[(1S,2E)-4-ethoxy-1-isopropyl-3-methyl4-oxo-2-butenyl]-N^1,3-dimethyl-L-valinamide] | 33.9 | 15.5 | 525 | 52.4 | 1780 | – | – | – | – | – | –
CCCC/C(=C\[C@@H](NC(=O)[C@@H](NC(=O)[C@@H](NC)C(C)(C)c1ccccc1)C(C)(C)C)C(C)C)C(=O)O [Example 77, (E,4S)-2-Butyl-4-[((2S)-3,3-dimethyl-2-{[(2S)-3-methyl-2-(methylamino)-3-phenylbutanoyl]amino}butanoyl)amino]-5-methyl-2-hexenoic Acid] | 575 | 3.0 | 1740 | 5.2 | ≥ 3000 | – | – | – | – | – | –
CN[C@H](C(=O)N[C@H](C(=O)N(C)[C@H](/C=C(\C)C(=O)O)C(C)C)C(C)(C)C)C(C)(C)c1cccc(Br)c1 [Example 37, 3-bromo-N,β,β-trimethyl-L-phenylalanyl-N^1-[(1S,2E)-3-carboxy-1-isopropylbut-2-enyl]-N^1,3-dimethyl-L-valinamide] | 1.8 | 2.3 | 4.1 | 82.2 | 148 | – | – | – | – | – | –
CN[C@H](C(=O)N[C@H](C(=O)N(C)[C@H](/C=C(\C)C(=O)O)C(C)C)C(C)(C)C)C(C)(C)c1cccc(F)c1 [Example 60, 3-Fluoro-N,β,β-trimethyl-L-phenylalanyl-N^1-[(1S,2E)-3-carboxy-1-isopropyl-2-butenyl]-N^1,3-dimethyl-L-valinamide] | 0.997 | 1.8 | 1.8 | 77.4 | 77 | – | – | – | – | – | –
CN[C@H](C(=O)N[C@H](C(=O)N(C)[C@H](/C=C(\C)C(=O)O)C(C)C)C(C)(C)C)C(C)(C)c1csc2ccccc12 [Example 26, 3-(1-Benzothien-3-yl)-N-methylvalyl-N^1-[(1S,2E)-3-carboxy-1-isopropyl-2-butenyl]-N^1,3-dimethyl-L-valinamide] | 4.5 | 2.0 | 9.1 | 92.6 | 417 | – | – | – | – | – | –
CN[C@H](C(=O)N[C@H](C(=O)N(C)[C@H](/C=C(\C)C(=O)O)C(C)C)C(C)(C)C)C(C)(C)c1cccc(C(C)=O)c1 [Example 155, 3-acetyl-N,β,β-trimethyl-L-phenylalanyl-N^1-[(1S,2E)-3-carboxy-1-isopropylbut-2-enyl]-N^1,3-dimethyl-L-valinamide] | 1.8 | 3.2 | 5.8 | 206 | 370 | – | – | – | – | – | –
CN[C@@H](C(=O)N[C@H](C(=O)N(C)[C@H](/C=C(\C)C(=O)O)C(C)C)C(C)(C)C)C(C)(C)c1cccc(C(F)(F)F)c1 [Example 63, N,β,β-Trimethyl-3-(trifluoromethyl)-D-phenylalanyl-N^1-[(1S,2E)-3-carboxy-1-isopropyl-2-butenyl]-N^1,3-dimethyl-L-valinamide] | 19.1 | 2.4 | 45.7 | 69.0 | 1320 | – | – | – | – | – | –
CCN[C@H](C(=O)N[C@H](C(=O)N(C)[C@H](/C=C(\C)C(=O)OCC)C(C)C)C(C)(C)C)C(C)(C)c1ccccc1 [Example 31, N-Ethyl-β,β-dimethylphenylalanyl-N^1-[(1S,2E)-4-ethoxy-1-isopropyl-3-methyl4-oxo-2-butenyl]-N^1,3-dimethyl-L-valinamide] | 436 | 4.3 | 1860 | 6.9 | ≥ 3000 | – | – | – | – | – | –
